Reference: ChEMBL document CHEMBL1764998, “Structures, synthesis, and human Nod1 stimulation of immunostimulatory bacterial peptidoglycan fragments in the environment” (J Nat Prod, 2011)
Calls of active or inactive are those of the source. No cut-off for these calls is given here.

How the values were obtained:
Type in all cases: cell-based
Conditions in all cases: HEK-293T
[1] = target: T1, Nucleotide-binding oligomerization domain-containing protein 1 (Homo sapiens) (UniProt Q9Y239); experiment: Induction of human NOD1 activity expressed in HEK293T cells assessed as NFKB activation at 0.1 to 1000 ng/ml by luciferase reporter assay
T1 sequence (whole entry): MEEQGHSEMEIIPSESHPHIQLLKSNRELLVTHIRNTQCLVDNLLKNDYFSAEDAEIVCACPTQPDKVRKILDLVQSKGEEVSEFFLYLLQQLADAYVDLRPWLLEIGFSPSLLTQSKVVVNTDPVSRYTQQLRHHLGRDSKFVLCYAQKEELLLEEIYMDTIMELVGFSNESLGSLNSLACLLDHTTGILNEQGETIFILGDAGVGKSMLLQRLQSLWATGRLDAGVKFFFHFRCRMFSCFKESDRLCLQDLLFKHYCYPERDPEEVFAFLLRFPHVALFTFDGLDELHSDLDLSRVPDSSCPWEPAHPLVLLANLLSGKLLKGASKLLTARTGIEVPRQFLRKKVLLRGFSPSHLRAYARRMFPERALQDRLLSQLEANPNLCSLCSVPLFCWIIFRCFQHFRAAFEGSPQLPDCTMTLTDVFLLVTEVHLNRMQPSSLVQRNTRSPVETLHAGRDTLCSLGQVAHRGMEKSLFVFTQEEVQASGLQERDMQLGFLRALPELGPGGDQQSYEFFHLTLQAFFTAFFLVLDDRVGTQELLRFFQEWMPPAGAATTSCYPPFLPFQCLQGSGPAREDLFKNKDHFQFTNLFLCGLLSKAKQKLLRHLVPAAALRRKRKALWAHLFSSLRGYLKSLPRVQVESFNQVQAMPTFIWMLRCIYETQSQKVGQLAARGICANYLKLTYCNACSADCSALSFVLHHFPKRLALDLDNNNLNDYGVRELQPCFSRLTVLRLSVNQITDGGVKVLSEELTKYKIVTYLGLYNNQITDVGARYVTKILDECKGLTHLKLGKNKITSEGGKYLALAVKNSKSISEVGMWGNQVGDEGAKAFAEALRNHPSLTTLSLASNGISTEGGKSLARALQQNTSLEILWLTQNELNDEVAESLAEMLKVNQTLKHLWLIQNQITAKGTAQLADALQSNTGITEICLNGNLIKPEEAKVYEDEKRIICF

[2] = target: T1, Nucleotide-binding oligomerization domain-containing protein 1 (Homo sapiens); experiment: Induction of human NOD1 activity expressed in HEK293T cells assessed as NFKB activation at 5 mM
[3] = target: T1, Nucleotide-binding oligomerization domain-containing protein 1 (Homo sapiens); experiment: Induction of human NOD1 activity expressed in HEK293T cells assessed as NFKB activation at 1 to 100 ng/ml by luciferase reporter assay

SMILES	Activity [1]	Activity [2]	Activity [3]
CC(=O)N[C@@H]1[C@@H](OC(C)C(=O)N[C@@H](C)C(=O)N[C@H](CCC(=O)N[C@@H](CCC[C@@H](N)C(=O)O)C(=O)O)C(=O)O)[C@H](O)[C@@H](CO)O[C@H]1O (stereo partly specified)	Active	Active	–
CC(=O)N[C@@H]1[C@@H](OC(C)C(=O)N[C@@H](C)C(=O)N[C@H](CCC(=O)N[C@@H](CCC[C@@H](N)C(=O)O)C(=O)O)C(=O)O)[C@H](O[C@@H]2O[C@H](CO)[C@@H](O)[C@H](O)[C@H]2NC(C)=O)[C@@H](CO)O[C@H]1O (stereo partly specified)	Active	–	–
CC(=O)N[C@H]1[C@H](O[C@H]2[C@H](OC(C)C(=O)N[C@@H](C)C(=O)N[C@H](CCC(=O)N[C@@H](CCC[C@@H](N)C(=O)O)C(=O)O)C(=O)O)[C@@H](NC(C)=O)[C@@H]3OC[C@H]2O3)O[C@H](CO)[C@@H](O)[C@@H]1O (stereo partly specified)	–	–	Active
N[C@H](CCC[C@H](NC(=O)CC[C@@H](N)C(=O)O)C(=O)O)C(=O)O	–	–	Active
C[C@H](N)C(=O)N[C@H](CCC(=O)N[C@@H](CCC[C@@H](N)C(=O)O)C(=O)O)C(=O)O	–	–	Active
